ChEMBL document CHEMBL5154903 (J Med Chem, 2022)

Experiments:
CYP2D6 = CYP2D6 (Homo sapiens, UniProt P10635); assay: Inhibition of CYP2D6 in human liver microsomes at 10 uM incubated for 45 mins by LC-MS/MS analysis relative to control; assay type: ADME, Microsome
Egl nine homolog 1 = Egl nine homolog 1 (Homo sapiens, UniProt Q9GZT9); assay: Binding affinity to PHD2 (unknown origin) assessed as change in melting temperature at 10 uM in presence of ZnSO4 by thermal shift assay
MCF7 = assay: Cytotoxicity against human MCF7 cells assessed as reduction in cell viability at 10 uM incubated for 72 to 96 hrs by Celltiter-Glo assay; assay type: toxicity, cell-based; details: mcf7, 10 µM, time 72-96 hrs
MDA-MB-231 = assay: Cytotoxicity against human MDA-MB-231 cells assessed as reduction in cell viability at 10 uM incubated for 72 to 96 hrs by Celltiter-Glo assay; assay type: toxicity, cell-based; details: mda-mb-231, 10 µM, time 72-96 hrs
[1] = Tmax in overnight fasted Sprague-Dawley rat at 5 mg/kg, po measured upto 24 hrs; assay type: ADME, organism-based; details: in vivo
A549 = assay: Cytotoxicity against human A549 cells assessed as reduction in cell viability at 10 uM incubated for 72 to 96 hrs by Celltiter-Glo assay; assay type: toxicity, cell-based; details: a549, 10 µM, time 72-96 hrs
[2] = AUC (0 to infinity) in overnight fasted Sprague-Dawley rat at 5 mg/kg, iv measured upto 24 hrs; assay type: ADME, organism-based; design: dose 5 mg/kg, time < 24 hrs, route iv; details: in vivo
[3] = target: T1, Thyroid hormone receptor alpha (Homo sapiens) (UniProt P10827); details: filed as agonist, dose 10.0 µM
T1 sequence (whole entry): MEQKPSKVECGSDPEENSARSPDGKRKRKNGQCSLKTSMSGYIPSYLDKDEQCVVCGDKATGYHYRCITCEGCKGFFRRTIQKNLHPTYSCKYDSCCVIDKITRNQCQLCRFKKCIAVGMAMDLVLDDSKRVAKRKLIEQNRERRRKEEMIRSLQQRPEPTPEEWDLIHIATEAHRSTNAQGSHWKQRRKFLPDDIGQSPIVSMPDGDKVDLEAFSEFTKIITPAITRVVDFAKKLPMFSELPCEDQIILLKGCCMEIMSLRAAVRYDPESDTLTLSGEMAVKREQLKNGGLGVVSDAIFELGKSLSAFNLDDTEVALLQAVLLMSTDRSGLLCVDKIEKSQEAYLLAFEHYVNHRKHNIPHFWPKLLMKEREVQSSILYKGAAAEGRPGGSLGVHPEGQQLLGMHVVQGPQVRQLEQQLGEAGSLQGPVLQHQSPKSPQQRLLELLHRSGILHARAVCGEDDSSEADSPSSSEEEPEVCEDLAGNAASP

[4] = Cmax in overnight fasted Sprague-Dawley rat at 5 mg/kg, iv measured upto 24 hrs; assay type: ADME, organism-based; design: time < 24 hrs, dose 5 mg/kg, route iv; details: in vivo
CYP2C19 = CYP2C19 (Homo sapiens, UniProt P33261); assay: Inhibition of CYP2C19 in human liver microsomes at 10 uM incubated for 45 mins by LC-MS/MS analysis relative to control; assay type: ADME, Microsome
CYP2B6 = CYP2B6 (Homo sapiens, UniProt P20813); assay: Inhibition of CYP2B6 in human liver microsomes at 10 uM incubated for 10 mins by LC-MS/MS analysis relative to control; assay type: ADME, Microsome
CYP2B6, sequence (P20813 whole entry): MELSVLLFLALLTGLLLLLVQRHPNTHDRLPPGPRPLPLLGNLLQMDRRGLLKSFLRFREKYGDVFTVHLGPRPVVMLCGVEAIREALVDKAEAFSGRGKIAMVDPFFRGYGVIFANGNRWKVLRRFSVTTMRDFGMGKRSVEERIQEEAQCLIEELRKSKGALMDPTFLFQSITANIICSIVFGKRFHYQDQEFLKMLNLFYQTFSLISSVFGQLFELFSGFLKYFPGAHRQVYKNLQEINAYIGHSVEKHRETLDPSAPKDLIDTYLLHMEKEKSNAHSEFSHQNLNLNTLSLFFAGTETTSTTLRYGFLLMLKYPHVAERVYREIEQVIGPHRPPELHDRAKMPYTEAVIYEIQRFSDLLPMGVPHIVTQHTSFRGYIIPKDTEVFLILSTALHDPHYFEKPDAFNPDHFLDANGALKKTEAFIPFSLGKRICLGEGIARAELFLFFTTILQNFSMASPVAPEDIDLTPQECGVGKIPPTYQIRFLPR

CYP2D6, sequence (P10635 whole entry): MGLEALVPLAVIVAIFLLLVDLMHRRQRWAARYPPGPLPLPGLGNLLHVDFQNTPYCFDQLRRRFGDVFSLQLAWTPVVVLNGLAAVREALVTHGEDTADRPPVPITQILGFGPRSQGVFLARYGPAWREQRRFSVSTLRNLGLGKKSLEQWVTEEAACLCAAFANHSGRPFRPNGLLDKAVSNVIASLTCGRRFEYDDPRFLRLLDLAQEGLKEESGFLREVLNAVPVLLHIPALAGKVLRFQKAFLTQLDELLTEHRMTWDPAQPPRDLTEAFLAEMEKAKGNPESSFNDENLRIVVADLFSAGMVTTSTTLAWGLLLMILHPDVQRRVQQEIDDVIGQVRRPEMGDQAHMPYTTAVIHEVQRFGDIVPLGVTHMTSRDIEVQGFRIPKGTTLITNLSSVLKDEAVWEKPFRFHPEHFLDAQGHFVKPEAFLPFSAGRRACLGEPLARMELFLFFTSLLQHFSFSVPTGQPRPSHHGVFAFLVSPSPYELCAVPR
Egl nine homolog 1, sequence (Q9GZT9 2-426 limits assumed): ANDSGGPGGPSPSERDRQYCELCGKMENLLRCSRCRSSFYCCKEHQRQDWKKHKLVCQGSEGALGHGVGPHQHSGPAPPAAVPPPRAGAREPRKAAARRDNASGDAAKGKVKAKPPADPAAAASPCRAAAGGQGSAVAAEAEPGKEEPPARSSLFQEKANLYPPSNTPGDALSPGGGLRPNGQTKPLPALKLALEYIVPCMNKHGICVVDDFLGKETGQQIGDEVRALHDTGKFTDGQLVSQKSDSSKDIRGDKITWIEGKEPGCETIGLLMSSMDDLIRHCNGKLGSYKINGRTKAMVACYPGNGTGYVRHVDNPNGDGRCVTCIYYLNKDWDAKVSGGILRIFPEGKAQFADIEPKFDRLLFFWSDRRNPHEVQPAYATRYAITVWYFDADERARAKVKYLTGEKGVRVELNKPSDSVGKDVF
CYP2C19, sequence (P33261 whole entry): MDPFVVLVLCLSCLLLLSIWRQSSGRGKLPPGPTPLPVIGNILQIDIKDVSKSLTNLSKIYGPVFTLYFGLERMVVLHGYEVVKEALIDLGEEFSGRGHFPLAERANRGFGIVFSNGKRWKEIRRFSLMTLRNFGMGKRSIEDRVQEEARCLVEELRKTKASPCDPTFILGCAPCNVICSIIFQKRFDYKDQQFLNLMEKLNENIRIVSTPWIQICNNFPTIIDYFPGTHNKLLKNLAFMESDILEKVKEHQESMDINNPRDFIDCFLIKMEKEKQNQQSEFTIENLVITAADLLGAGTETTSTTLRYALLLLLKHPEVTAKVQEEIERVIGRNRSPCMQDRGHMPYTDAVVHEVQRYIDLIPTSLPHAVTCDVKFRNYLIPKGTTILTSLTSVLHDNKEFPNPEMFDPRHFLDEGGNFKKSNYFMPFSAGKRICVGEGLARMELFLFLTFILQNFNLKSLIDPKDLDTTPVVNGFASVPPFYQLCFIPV

COc1cc(F)cc(C(=O)c2cc(C)c(Oc3ccc4c(O)c(C(=O)NCC(=O)O)nc(OC)c4c3)c(C)c2)c1
inhibition at 0.75 h, 10 µM (CYP2D6): -11.3% | ΔTm (Egl nine homolog 1): 1.5 °C | Activity (MCF7): Non-Toxic | Activity (MDA-MB-231): Non-Toxic | Tmax [1]: 1.33 h | Activity (A549): Non-Toxic | AUC(0-inf) [2]: 10900 ng·h/mL | ΔTm [3]: 0.1 °C | Cmax [4]: 8450 ng/mL | inhibition at 0.75 h, 10 µM (CYP2C19): 12% | inhibition at 10 min, 10 µM (CYP2B6): 15.2%
